Assay results: PMC6049614 (Chemical Communications (Cambridge, England), 2018)
Where a SMILES comes first, the peptide text is derived from it. Bridges are numbered along the chain shown (N, C = ends). [ ]: non-standard residue; d: D form. The star is where a group is joined. X1 = O=C(O)CN1CCN(CC(=O)O)CCN(Cc2ccc(CC(=O)*)cc2)CC1; Mpa = O=C(O)CCS

What was measured:
human OTR = biological target: T1, human OTR (Homo sapiens, UniProt P30559); test: Scintillation proximity assay, displacement of [3H]OT from human OTR; format: binding
T1 construct: expressed in transfected cells
T1 sequence (P30559 1-389): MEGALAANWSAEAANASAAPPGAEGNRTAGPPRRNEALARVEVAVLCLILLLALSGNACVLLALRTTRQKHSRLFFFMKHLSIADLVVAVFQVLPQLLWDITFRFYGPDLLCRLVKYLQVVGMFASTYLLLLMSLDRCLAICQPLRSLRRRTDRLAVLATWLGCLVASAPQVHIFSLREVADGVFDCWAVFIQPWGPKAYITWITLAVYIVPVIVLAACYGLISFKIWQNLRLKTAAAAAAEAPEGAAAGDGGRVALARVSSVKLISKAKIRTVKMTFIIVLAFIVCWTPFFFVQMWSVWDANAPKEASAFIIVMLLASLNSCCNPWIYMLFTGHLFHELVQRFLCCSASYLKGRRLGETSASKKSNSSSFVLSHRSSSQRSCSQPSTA
Text: (§1) OT analogues were screened in scintillation proximity assays that displace [^3H]OT or [^3H]AVP from the corresponding receptors. […]
(§2) All RCYs reported are decay corrected to the time of 18F delivery. The protocols for performing
(§3) receptor radioligand binding and potency studies on transfected cells to determine affinity

human V1a receptors = biological target: T2, human V1a receptors (Homo sapiens, UniProt P37288); test: Scintillation proximity assay, displacement of [3H]AVP from human V1a receptor; format: binding
T2 construct: expressed in transfected cells
T2 sequence (P37288 whole entry): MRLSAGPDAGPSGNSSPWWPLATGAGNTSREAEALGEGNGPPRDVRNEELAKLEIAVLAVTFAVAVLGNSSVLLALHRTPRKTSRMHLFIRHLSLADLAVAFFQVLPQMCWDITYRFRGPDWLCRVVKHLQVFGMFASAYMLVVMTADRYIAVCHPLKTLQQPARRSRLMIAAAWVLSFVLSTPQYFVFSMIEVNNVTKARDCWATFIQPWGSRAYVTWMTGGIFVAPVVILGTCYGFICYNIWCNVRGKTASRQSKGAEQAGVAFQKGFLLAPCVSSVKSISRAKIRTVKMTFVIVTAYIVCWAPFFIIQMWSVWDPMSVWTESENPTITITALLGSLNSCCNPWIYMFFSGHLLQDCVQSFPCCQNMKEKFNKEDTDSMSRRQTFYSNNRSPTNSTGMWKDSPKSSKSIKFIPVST
Text: as §1, §2, §3

[1] = biological target: T3, human vasopressin receptor V1b (Homo sapiens, UniProt P47901); test: Scintillation proximity assay, displacement of [3H]AVP from human V1b receptor; format: binding
T3 construct: expressed in transfected cells
T3 sequence (P47901 1-424): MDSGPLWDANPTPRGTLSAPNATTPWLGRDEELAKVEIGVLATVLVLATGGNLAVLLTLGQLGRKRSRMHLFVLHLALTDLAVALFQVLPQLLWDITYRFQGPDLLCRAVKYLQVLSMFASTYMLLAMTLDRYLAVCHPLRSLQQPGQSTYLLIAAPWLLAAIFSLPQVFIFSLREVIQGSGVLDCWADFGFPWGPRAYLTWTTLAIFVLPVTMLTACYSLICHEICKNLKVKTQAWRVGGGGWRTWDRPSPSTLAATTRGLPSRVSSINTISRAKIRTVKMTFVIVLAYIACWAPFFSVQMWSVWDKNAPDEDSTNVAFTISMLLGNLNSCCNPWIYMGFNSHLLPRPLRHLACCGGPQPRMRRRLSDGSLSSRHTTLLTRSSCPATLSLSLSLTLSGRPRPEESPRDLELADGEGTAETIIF
Text: OT analogues were screened in scintillation proximity assays that displace [^3H]OT or [^3H]AVP from the corresponding receptors. All peptides screened, including in a reduced state, preferentially bound human OTR with nanomolar affinity (Table 1). In line with previous studies, conjugation of a large group to position 8 afforded analogues with increased selectivity and improved affinity towards OTR[15] (approximately 60-fold for AlF-NODA-dLVT, and 7-fold for dLVT; Table 1 and ESI, ^† Fig. S1). […]. […]
tracer, a probe for nose-to-brain oxytocin uptake in vivo
Rhiannon Beard1; Nisha Singh2,3; Christophe Grundschober4; Antony D. Gee2 and Edward W. […]
a.1Department of Chemistry, Imperial College London, Exhibition Road, London, SW7 2AZ, UK; 2Division of Imaging Sciences, King’s College London, 4th Floor, Lambeth Wing, St Thomas’ Hospital, SE1, 7EH, London, UK; 3Centre for Neuroimaging Sciences, IoPPN, KCL, De Crespigny Park, London, SE5 8AF, UK; and 4 Roche Pharma Research and Early Development, Discovery Neuroscience, Roche Innovation Center Basel, F. Hoffmann-La Roche Ltd, Grenzacherstrasse 124, 4070 Basel, Switzerland […]
All RCYs reported are decay corrected to the time of 18F delivery. The protocols for performing receptor radioligand binding and potency studies on transfected cells to determine affinity constants have been reported elsewhere. 1 […]

in vivo = settings: rat
Protocol: To investigate the plausibility of i.n. administration for OT-like therapies, given the similar structure and hydrophilic profile between AlF-NODA-dLVT and OT, in vivo tissue distribution of [^18F]AlF-NODA-dLVT was determined following i.n. or i.v. administration. […]. Here, it is anticipated that both routes show independent kinetic and metabolic profiles and the extended apparent availability of OT following i.n. administration supports a longer timeframe for this study.[27],[28] Distribution was determined through gamma counting of radioactivity in isolated tissue. A large portion underwent excretion via kidneys (i.v. 4.6 ± 0.4%ID per g; i.n. 1.31 ± 0.7%ID per g) and urine (i.v. 2.5 ± 1.2%ID per g; i.n. 7.7 ± 2.2%ID per g), as expected from the hydrophilic character of the tracer, similar to previous results found with radiolabelled OT given i.v. (Fig. 4A).[29]
Supplementary Figure 5: Pharmacokinetic data acquired from three individual rats showing plasma clearance of AlF-NODA-dLVT over time. Rats received a dose of AlF-NODA-dLVT by tail vein injection (0.08 mg/kg), and blood plasma samples were taken at the specified time point for quantitative analysis by mass spectrometry. […]
Supplementary Figure 6: Transaxial nanoPET scan showing distribution over time of [18F]AlF-NODA-dLVT. Tracer was administered either by i.v. bolus (top) or intranasally (bottom) in rat. […]

[2] = biological target: T4, human vasopressin receptor V2 (Homo sapiens, UniProt P30518); test: Scintillation proximity assay, displacement of [3H]AVP from human V2 receptor; format: binding
T4 construct: expressed in transfected cells
T4 sequence (P30518 whole entry): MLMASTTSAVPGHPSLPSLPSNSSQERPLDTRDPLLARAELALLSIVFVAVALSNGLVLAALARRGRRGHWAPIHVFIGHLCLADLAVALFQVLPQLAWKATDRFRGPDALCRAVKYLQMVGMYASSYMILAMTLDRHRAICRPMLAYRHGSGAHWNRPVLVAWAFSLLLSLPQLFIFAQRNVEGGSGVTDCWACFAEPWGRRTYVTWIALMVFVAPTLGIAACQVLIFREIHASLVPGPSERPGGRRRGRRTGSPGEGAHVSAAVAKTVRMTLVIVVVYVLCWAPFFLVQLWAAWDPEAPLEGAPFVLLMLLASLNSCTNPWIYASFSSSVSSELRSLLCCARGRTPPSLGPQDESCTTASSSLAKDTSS
Text: as §1, §2, §3

Which results are given for `CC[C@H](C)[C@@H]1NC(=O)[C@H](Cc2ccc(O)cc2)NC(=O)CCSSC[C@@H](C(=O)N2CCC[C@H]2C(=O)N[C@@H](CCCCNC(=O)Cc2ccc(CN3CCN(CC(=O)O)CCN(CC(=O)O)CC3)cc2)C(=O)NCC(N)=O)NC(=O)[C@H](CC(N)=O)NC(=O)[C@H](CCC(N)=O)NC1=O` [AlF-NODA-dLVTc] ([Mpa]YIQNCPK(X1)G-NH2; disulfide 1-6)?
selectivity towards OTR (human OTR; OTR over V1a, from Ki values of Table 1): approximately 60 fold; Ki (human OTR; human OTR): 2.6 ± 1.7 nM; Ki (human V1a receptors): 157 ± 26 nM; Ki [1]: > 6000 nM; half-life (in vivo; Wistar, iv, 0.08 mg/kg): 14 min; increase in half-life compared to OT (in vivo): approximately 5 fold; Ki [2]: > 6000 nM
